Among the data in patent publication US8507686B2, “Substituted bicyclic methyl azetidines as sphingosine-1 phosphate receptors modulators” (Allergan, Inc., priority 2011, dated 2013) are EC50 values, retold here.

The target of this assay is T1, human S1P1 receptor (Homo sapiens, UniProt P21453).
T1 construct: expressed in transfected cells; host or cells: cells stably expressing the S1P1 receptor; membranes used
Put plainly: GTP γ35S binding assay for S1P1 activity. It counts as biochemical. Conditions: membranes of cells stably expressing the S1P1 receptor; agonist-induced GTP γ35S binding; read-out: EC50 at the S1P1 receptor from GTP γ35S. How it is done: Novel compounds were synthesized and tested for S1P1 activity using the GTP γ^35S binding assay. These compounds may be assessed for their ability to activate or block activation of the human S1P1 receptor in cells stably expressing the S1P1 receptor. […] binding was measured in the medium containing (mM) HEPES 25, pH 7.4, MgCl2 10, NaCl 100, dithitothreitol 0.5, digitonin 0.003%, 0.2 nM GTP γ^35S, and 5 μg membrane protein in a volume of 150 μl. Test compounds were included in the concentration range from 0.08 to 5,000 nM unless indicated otherwise. Membranes were incubated with 100 μM 5′-adenylylimmidodiphosphate for 30 min, and subsequently with 10 μM GDP for 10 min on ice. Drug solutions and membrane were mixed, and then reactions were initiated by adding GTP γ^35 S and continued for 30 min at 25° C. Reaction mixtures were filtered over Whatman GF/B filters under vacuum, and washed three times with 3 mL of ice-cold buffer (HEPES 25, pH7.4, MgCl2 10 and NaCl 100). Filters were dried and mixed with scintillant, and counted for ^35S activity using a β-counter. Agonist-induced GTP γ^35 S binding was obtained by subtracting that in the absence of agonist. Binding data were analyzed using a non-linear regression method. In case of antagonist assay, the reaction mixture contained 10 nM […] in the presence of test antagonist at concentrations ranging from 0.08 to 5000 nM.

Each structure is given as a SMILES string.

T1 sequence (P21453 whole entry): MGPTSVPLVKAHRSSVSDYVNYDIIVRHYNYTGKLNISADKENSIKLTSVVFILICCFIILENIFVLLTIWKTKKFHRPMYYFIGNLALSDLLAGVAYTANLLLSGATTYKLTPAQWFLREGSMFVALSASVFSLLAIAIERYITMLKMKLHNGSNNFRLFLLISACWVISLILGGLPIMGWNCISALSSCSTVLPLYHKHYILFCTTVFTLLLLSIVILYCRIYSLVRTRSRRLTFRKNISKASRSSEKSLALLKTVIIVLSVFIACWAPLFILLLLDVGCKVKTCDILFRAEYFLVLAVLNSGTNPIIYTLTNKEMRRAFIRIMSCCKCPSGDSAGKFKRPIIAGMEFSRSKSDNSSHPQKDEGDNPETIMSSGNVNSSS

One may read the EC50 as the concentration at which the effect is half-maximal. Take `O=C(O)C1CN(Cc2ccc(C#CCCCCc3ccccc3)c3cccnc23)C1` [Compound 1]: the EC50 was 390 nM.
